In patent EP4596574A1, “GLP-1/GCG/GIP TRIPLE-RECEPTOR AGONIST AND USE THEREOF” (Sunshine Lake Pharma Co., Ltd., priority 2022, dated 2024):
Marks after values point to notes of the source that are not given here.

Tests used:
[1] = In vivo efficacy evaluation in db/db mouse model (blood glucose); parameters: species or system db/db mice; conditions: db/db mice
Method: Blood glucose was tested before each administration.

[2] = Glucose tolerance assessment in normal C57BL/6 mice (Example 5); format: in vivo; conditions: 3 nmol/kg s.c. single dose, 24 h after administration
Method: (§1) Twelve hours after the single administration, the animals were fasted for 12 hours and had free access to water. Blood was collected from the tail vein to determine the basal blood glucose level of each group of animals, and then 2 g/kg glucose solution was injected intraperitoneally. Blood glucose was tested at 15, 30, 60, and 90 min after glucose administration. The blood glucose concentration-time curve was drawn according to the blood glucose values measured at different time points, and the AUC0~90min of each dose group was calculated as shown in Table 5 and Figure 2. Table 5: Effects of single administration of HEC-PT86, HEC-PT96, HEC-PT112, HEC-PT113, HEC-PT114, and HEC-PT119 on glucose tolerance in normal C57 mice 24 h after administration

[3] = Glucose tolerance assessment in normal C57BL/6 mice (Example 4); format: in vivo; conditions: 3 nmol/kg s.c. single dose, 24 h after administration
Method: as §1, with “Table 4” for “Table 5”, “Figure 1.” for “Figure 2.”, “Table 4:” for “Table 5:”, “of HEC-PT74, HEC-PT75, HEC-PT77, HEC-PT78, HEC-PT80,” for “of HEC-PT86, HEC-PT96, HEC-PT112, HEC-PT113, HEC-PT114,”, “and HEC-PT82” for “and HEC-PT119”

[4] = Long-term repeated administration in diet-induced obese C57BL/6 mice (DIO); format: in vivo, C57/BL6 mice
Excerpt: Experimental methods: C57/BL6 mice were randomly divided into a normal group (NFD) and a model group (HFD) at the fifth week of age. The normal group was fed with ordinary maintenance feed, while the other groups were fed with high-fat feed D12492. The body weight and food intake of mice were monitored every 3 weeks. After 16 weeks of feeding, the body weights of mice in the model group and the normal group were (49.0±2.3) g and (31.0±2.0) g, respectively, and the difference between the two groups was statistically significant. […] Body weight and food intake were measured before each administration. After 3 weeks of administration, an intraperitoneal glucose tolerance test was performed. The mice were slaughtered and samples were collected 72 h after the last administration. The liver weight was recorded, and the liver pathological conditions and blood biochemical indexes of each group were tested.

[5] = 15 min after 2 g/kg glucose i.p.
[6] = 30 min after 2 g/kg glucose i.p.
[7] = 60 min after 2 g/kg glucose i.p.
[8] = 90 min after 2 g/kg glucose i.p.
[9] = basal before 2 g/kg glucose i.p.
[10] = blood glucose AUC, 2 g/kg glucose i.p.
[11] = 10 nmol/kg s.c. once every 3 days, D7
[12] = 10 nmol/kg s.c. once every 3 days, D10
[13] = 10 nmol/kg s.c. once every 3 days, D13
[14] = 10 nmol/kg s.c. once every 3 days, D16
[15] = 10 nmol/kg s.c. once every 3 days, D19
[16] = 10 nmol/kg s.c. once every 3 days, D22
[17] = 10 nmol/kg s.c. once every 3 days, D25
[18] = 10 nmol/kg s.c. once every 3 days, D28
[19] = long-term administration 10 nmol/kg, 72 h after the last administration
[20] = long-term administration 10 nmol/kg, blood biochemical index

Question: With `CC[C@H](C)[C@H](NC(=O)[C@H](CC(C)C)NC(=O)[C@H](Cc1c[nH]c2ccccc12)NC(=O)[C@H](CCC(N)=O)NC(=O)[C@@H](NC(=O)[C@H](Cc1ccccc1)NC(=O)[C@H](C)NC(=O)[C@H](CCCCNC(=O)COCCOCCNC(=O)COCCOCCNC(=O)CC[C@H](NC(=O)CCCCCCCCCCCCCCCCCCC(=O)O)C(=O)O)NC(=O)[C@H](CCC(N)=O)NC(=O)[C@H](C)NC(=O)[C@@H](NC(=O)[C@H](CCCCN)NC(=O)[C@H](CC(=O)O)NC(=O)[C@H](CC(C)C)NC(=O)C(C)(C)NC(=O)[C@@H](NC(=O)[C@H](CO)NC(=O)[C@H](Cc1ccc(O)cc1)NC(=O)[C@H](CC(=O)O)NC(=O)[C@H](CO)NC(=O)[C@@H](NC(=O)[C@H](Cc1ccccc1)NC(=O)[C@@H](NC(=O)CNC(=O)[C@H](CCC(=O)O)NC(=O)C(C)(C)NC(=O)[C@@H](N)Cc1ccc(O)cc1)[C@@H](C)O)[C@@H](C)O)[C@@H](C)CC)[C@@H](C)CC)C(C)C)C(=O)N[C@@H](C)C(=O)NCC(=O)NCC(=O)N1CCC[C@H]1C(=O)N[C@@H](CO)C(=O)N[C@@H](CO)C(=O)NCC(=O)N[C@@H](C)C(=O)N1CCC[C@H]1C(=O)N1CCC[C@H]1C(=O)N1CCC[C@H]1C(=O)N[C@@H](CO)C(N)=O` [LY3298176, tirzepatide, reference compound] as the compound, how does the “Random blood glucose (mM) D0” value ([1]; 10 nmol/kg s.c. once every three days, D0 (before first dose)) read?
Answer: Its value is 26.1 ± 3.8 mM.

Question: And the “Random blood glucose (mM) D3” value ([1]; 10 nmol/kg s.c. once every three days, D3)?
Answer: The value was 22.4 ± 3.7 mM.

Question: And the “Random blood glucose (mM) D4” value ([1]; 10 nmol/kg s.c. once every three days, D4)?
Answer: The value was 22.1 ± 4.0 mM.

Question: And the “Random blood glucose (mM) D5” value ([1]; 10 nmol/kg s.c. once every three days, D5)?
Answer: The value was 24.2 ± 3.9 mM.

Question: And the “Random blood glucose (mM) D6” value ([1]; 10 nmol/kg s.c. once every three days, D6)?
Answer: Its value is 25.3 ± 4.0 mM.

Question: What about the “Random blood glucose (mM) D7” value ([1]; 10 nmol/kg s.c. once every three days, D7) of the same compound?
Answer: Its value is 23.5 ± 2.6 mM.

Question: What about the “Random blood glucose (mM) D10” value ([1]; 10 nmol/kg s.c. once every three days, D10) of the same compound?
Answer: Its value is 18.5 ± 5.1 mM.

Question: What about the “Random blood glucose (mM) D13” value ([1]; 10 nmol/kg s.c. once every three days, D13) of the same compound?
Answer: Its value is 20.1 ± 5.8 mM.

Question: And the “Random blood glucose (mM) D16” value ([1]; 10 nmol/kg s.c. once every three days, D16)?
Answer: Its value is 18.6 ± 4.0 mM.

Question: What about the “Random blood glucose (mM) D19” value ([1]; 10 nmol/kg s.c. once every three days, D19) of the same compound?
Answer: The value was 18.7 ± 3.8 mM.

Question: What about the “Random blood glucose (mM) D22” value ([1]; 10 nmol/kg s.c. once every three days, D22) of the same compound?
Answer: Its value is 16.2 ± 4.6 mM.

Question: What about the “Random blood glucose (mM) D25” value ([1]; 10 nmol/kg s.c. once every three days, D25) of the same compound?
Answer: Its value is 16.6±3.7^a mM.

Question: What about the “Random blood glucose (mM) 6 h” value ([1]; 10 nmol/kg s.c., 6 h) of the same compound?
Answer: The value was 16.8 ± 5.0 mM.

Question: What about the “Random blood glucose (mM) 24 h” value ([1]; 10 nmol/kg s.c., 24 h) of the same compound?
Answer: Its value is 13.0 ± 6.7 mM.

Question: And the “Random blood glucose (mM) 48 h” value ([1]; 10 nmol/kg s.c., 48 h)?
Answer: Its value is 19.9 ± 5.6 mM.

Question: What about the “Blood glucose level (mM) 15 min” value [2, 5] of the same compound?
Answer: Its value is 13.6 ± 3.1 mM.

Question: And the “Blood glucose level (mM) 30 min” value [2, 6]?
Answer: Its value is 9.9 ± 3.2 mM.

Question: And the “Blood glucose level (mM) 60 min” value [2, 7]?
Answer: Its value is 6.9 ± 0.9 mM.

Question: And the “Blood glucose level (mM) 90 min” value [2, 8]?
Answer: Its value is 7.2 ± 0.9 mM.

Question: What about the “Blood glucose level (mM) 0 min” value [2, 9] of the same compound?
Answer: The value was 4.9 ± 1.0 mM.

Question: And the AUC0-90 min [2, 10]?
Answer: The AUC0-90 min was 776.9±125.6^a.

Question: What about the “Blood glucose level (mM) 15 min” value [3, 5] of the same compound?
Answer: Its value is 12.6 ± 3.5 mM.

Question: What about the “Blood glucose level (mM) 30 min” value [3, 6] of the same compound?
Answer: The value was 9.5 ± 3.3 mM.

Question: What about the “Blood glucose level (mM) 60 min” value [3, 7] of the same compound?
Answer: The value was 7.9 ± 1.4 mM.

Question: And the “Blood glucose level (mM) 90 min” value [3, 8]?
Answer: The value was 6.5 ± 1.3 mM.

Question: And the “Blood glucose level (mM) 0 min” value [3, 9]?
Answer: The value was 4.0 ± 0.8 mM.

Question: And the AUC0-90 min [3, 10]?
Answer: Its AUC0-90 min is 768.2±171.6^a.

Question: And the “Cumulative food intake (g/pcs) D7” value [4, 11]?
Answer: The value was 10.2 g/pcs.

Question: And the “Weight gain rate (%) D7” value [4, 11]?
Answer: Its value is -15.4±2.9%.

Question: What about the “Cumulative food intake (g/pcs) D10” value [4, 12] of the same compound?
Answer: The value was 13.0 g/pcs.

Question: What about the “Weight gain rate (%) D10” value [4, 12] of the same compound?
Answer: Its value is -19.6±3.2%.

Question: What about the “Cumulative food intake (g/each) D13” value [4, 13] of the same compound?
Answer: The value was 16.6 g/each.

Question: And the “Weight gain rate (%) D13” value [4, 13]?
Answer: The value was -24.3±6.4%.

Question: And the “Cumulative food intake (g/each) D16” value [4, 14]?
Answer: The value was 22.1 g/each.

Question: What about the “Weight gain rate (%) D16” value [4, 14] of the same compound?
Answer: Its value is -23.4±5.1%.

Question: And the “Cumulative food intake (g/each) D19” value [4, 15]?
Answer: The value was 27.9 g/each.

Question: And the “Weight gain rate (%) D19” value [4, 15]?
Answer: Its value is -26.0±7.3%.

Question: And the “Cumulative food intake (g/each) D22” value [4, 16]?
Answer: The value was 34.2 g/each.

Question: And the “Weight gain rate (%) D22” value [4, 16]?
Answer: The value was -26.7±7.7%.

Question: What about the “Cumulative food intake (g/each) D25” value [4, 17] of the same compound?
Answer: The value was 40.6 g/each.

Question: What about the “Weight gain rate (%) D25” value [4, 17] of the same compound?
Answer: Its value is -27.7±7.0%.

Question: And the “Cumulative food intake (g/each) D28” value [4, 18]?
Answer: Its value is 48.1 g/each.

Question: What about the “Weight gain rate (%) D28” value [4, 18] of the same compound?
Answer: The value was -28.2±7.3%.

Question: And the “Cumulative food intake (g/each) D30” value ([4]; 10 nmol/kg s.c. once every 3 days, D30)?
Answer: Its value is 51.9^a g/each.

Question: And the “Weight gain rate (%) D31” value ([4]; 10 nmol/kg s.c. once every 3 days, D31)?
Answer: Its value is -28.0±6.8^a %.

Question: And the “Cumulative food intake (g/pcs) D0” value ([4]; 10 nmol/kg s.c., D0)?
Answer: The value was 2.7 g/pcs.

Question: And the “Weight gain rate (%) D0” value ([4]; 10 nmol/kg s.c., D0)?
Answer: Its value is 0.0±0.0%.

Question: And the “Cumulative food intake (g/pcs) D1” value ([4]; 10 nmol/kg s.c., D1)?
Answer: The value was 3.0 g/pcs.

Question: What about the “Weight gain rate (%) D1” value ([4]; 10 nmol/kg s.c., D1) of the same compound?
Answer: The value was -6.4±0.9%.

Question: What about the “Cumulative food intake (g/pcs) D2” value ([4]; 10 nmol/kg s.c., D2) of the same compound?
Answer: Its value is 3.8 g/pcs.

Question: What about the “Weight gain rate (%) D2” value ([4]; 10 nmol/kg s.c., D2) of the same compound?
Answer: Its value is -8.9±1.3%.

Question: What about the “Cumulative food intake (g/pcs) D3” value ([4]; 10 nmol/kg s.c., D3) of the same compound?
Answer: Its value is 5.1 g/pcs.

Question: And the “Weight gain rate (%) D3” value ([4]; 10 nmol/kg s.c., D3)?
Answer: The value was -8.7±1.9%.

Question: What about the “Cumulative food intake (g/pcs) D4” value ([4]; 10 nmol/kg s.c., D4) of the same compound?
Answer: The value was 7.4 g/pcs.

Question: What about the “Weight gain rate (%) D4” value ([4]; 10 nmol/kg s.c., D4) of the same compound?
Answer: Its value is -7.7±2.1%.

Question: What about the Liver/g [4, 19] of the same compound?
Answer: The Liver/g was 1.0±0.1^a g.

Question: What about the Weight/g [4, 19] of the same compound?
Answer: Its Weight/g is 32.6±3.9^a g.

Question: And the “ALT (U/L)” value [4, 20]?
Answer: Its value is 30.9±3.1^a U/L.

Question: And the “AST (U/L)” value [4, 20]?
Answer: Its value is 110.3±17.6^a U/L.

Question: And the “CHOL (mmol/L)” value [4, 20]?
Answer: Its value is 3.3±0.5^a mmol/L.

Question: And the “TRIGL (mmol/L)” value [4, 20]?
Answer: Its value is 0.6±0.1^a mmol/L.
